Experiments:
Test in all cases: Test E preemergence
Settings in all cases: scale 0 to 100
corn = format: in vivo, Zea mays
From the text: (§1) Seeds of plant species selected from corn (Zea mays), soybean (Glycine max), lambsquarters (Chenopodium album), poinsettia, wild (wild poinsettia, Euphorbia heterophylla), pigweed, palmer (palmer pigweed, Amaranthus palmeri), waterhemp (common waterhemp, Amaranthus rudis), surinam grass (Brachiaria decumbens), crabgrass, large (large crabgrass, Digitaria sanguinalis), crabgrass, Brazilian (Brazilian crabgrass, Digitaria horizontalis), panicum, fall (fall panicum, Panicum dichotomiflorum), foxtail, giant (giant foxtail, Setaria faberii), foxtail, green (green foxtail, Setaria viridis), goosegrass (Eleusine indica), johnsongrass (Sorghum halepense), ragweed (common ragweed, Ambrosia elatior), barnyardgrass (Echinochloa crus-galli), sandbur (southern sandbur, Cenchrus echinatus), arrowleaf sida (Sida rhombifolia), ryegrass, Italian (Italian ryegrass, Lolium multiflorum), dayflower, VA (Virginia dayflower, Commelina virginica), field bindweed (Convolvulus arvensis), cocklebur (common cocklebur, Xanthium strumarium), morningglory (Ipomoea coccinea), nightshade (eastern black nightshade, Solanum ptycanthum), kochia (Kochia scoparia), nutsedge, yellow (yellow nutsedge, Cyperus esculentus), smartweed (ladysthumb smartweed, Polygonum persicaria), velvetleaf (Abutilon theophrasti), horseweed (Conyza canadensis), and beggarticks (hairy beggarticks, Bidens pilosa), were planted into a silt loam soil and treated preemergence with test chemicals formulated in a non-phytotoxic solvent mixture which included a surfactant.
(§2) At the same time, plants from these crop and weed species and also waterhemp_RES1, (ALS & Triazine resistant common waterhemp, Amaranthus rudis), and waterhemp_RES2, (ALS & HPPD resistant common waterhemp, Amaranthus rudis) were planted in pots containing Sunshine Redi-Earth® planting medium comprising spaghnum peat moss, vermiculite, starter nutrients and dolomitic limestone were treated with postemergence applications of test chemicals formulated in the same manner. Plants ranged in height from 2 to 18 cm for postemergence treatments (1- to 4-leaf stage). Treated plants and controls were maintained in a greenhouse for 14 to 21 d, after which time all species were compared to controls and visually evaluated. Plant response ratings, summarized in Table E, are based on a scale of 0 to 100 where 0 is no effect and 100 is complete control. A dash (-) response means no test result.

arrowleaf sida = format: in vivo, Sida rhombifolia
From the text: as §1, §2

panicum, fall = format: in vivo, Panicum dichotomiflorum
From the text: as §1, §2

ragweed = format: in vivo, Ambrosia elatior
From the text: as §1, §2

nightshade = format: in vivo, Solanum ptycanthum
From the text: as §1, §2

crabgrass, large = format: in vivo, Digitaria sanguinalis
From the text: as §1, §2

soybean = format: in vivo, Glycine max
From the text: as §1, §2

waterhemp = format: in vivo, Amaranthus rudis
From the text: as §1, §2

kochia = format: in vivo, Kochia scoparia
From the text: as §1, §2

morningglory = format: in vivo, Ipomoea coccinea
From the text: as §1, §2

ryegrass, Italian = format: in vivo, Lolium multiflorum
From the text: as §1, §2

sandbur = format: in vivo, Cenchrus echinatus
From the text: as §1, §2

lambsquarters = format: in vivo, Chenopodium album
From the text: as §1, §2

field bindweed = format: in vivo, Convolvulus arvensis
From the text: as §1, §2

johnsongrass = format: in vivo, Sorghum halepense
From the text: as §1, §2

In the case of CCCc1nc(-c2ccc(F)cc2)nn1Cc1ccnc(C(F)(F)F)c1 [Compound 6, 4-[[3-(4-fluorophenyl)-5-propyl-1H-1,2,4-triazol-1-yl]methyl]-2-(trifluoromethyl)pyridine], the Plant response rating (corn; 16 g ai/ha) is reported as 0, the Plant response rating (corn; 31 g ai/ha) is reported as 15 and the Plant response rating (corn; 62 g ai/ha) is reported as 30. It also gave a Plant response rating (corn; 125 g ai/ha) of 50, a Plant response rating (corn; 250 g ai/ha) of 60 and a Plant response rating (arrowleaf sida; 16 g ai/ha) of 0. For the same molecule, the Plant response rating (arrowleaf sida; 31 g ai/ha) was 0, the Plant response rating (arrowleaf sida; 62 g ai/ha) was 10 and the Plant response rating (arrowleaf sida; 125 g ai/ha) was 30. It also gave a Plant response rating (arrowleaf sida; 250 g ai/ha) of 70, a Plant response rating (panicum, fall; 31 g ai/ha) of 20 and a Plant response rating (panicum, fall; 62 g ai/ha) of 35. For the same molecule, the Plant response rating (panicum, fall; 125 g ai/ha) was 95, the Plant response rating (panicum, fall; 250 g ai/ha) was 100 and the Plant response rating (ragweed; 16 g ai/ha) was 10. It also gave a Plant response rating (ragweed; 31 g ai/ha) of 20, a Plant response rating (ragweed; 62 g ai/ha) of 20 and a Plant response rating (ragweed; 125 g ai/ha) of 50. It also gave a Plant response rating (ragweed; 250 g ai/ha) of 90, a Plant response rating (nightshade; 16 g ai/ha) of 15 and a Plant response rating (nightshade; 31 g ai/ha) of 70. For the same molecule, the Plant response rating (nightshade; 62 g ai/ha) was 90, the Plant response rating (nightshade; 125 g ai/ha) was 100 and the Plant response rating (nightshade; 250 g ai/ha) was 100. It also gave a Plant response rating (crabgrass, large; 62 g ai/ha) of 90, a Plant response rating (crabgrass, large; 125 g ai/ha) of 100 and a Plant response rating (crabgrass, large; 250 g ai/ha) of 100. It also gave a Plant response rating (soybean; 16 g ai/ha) of 0, a Plant response rating (soybean; 31 g ai/ha) of 10 and a Plant response rating (soybean; 62 g ai/ha) of 40. The Plant response rating (soybean; 125 g ai/ha) was 50, the Plant response rating (soybean; 250 g ai/ha) was 70 and the Plant response rating (waterhemp; 31 g ai/ha) was 80. For the same molecule, the Plant response rating (waterhemp; 62 g ai/ha) was 100, the Plant response rating (waterhemp; 125 g ai/ha) was 100 and the Plant response rating (waterhemp; 250 g ai/ha) was 100. It also gave a Plant response rating (kochia; 16 g ai/ha) of 60, a Plant response rating (kochia; 31 g ai/ha) of 80 and a Plant response rating (kochia; 62 g ai/ha) of 80. For the same molecule, the Plant response rating (kochia; 125 g ai/ha) was 85, the Plant response rating (kochia; 250 g ai/ha) was 100 and the Plant response rating (morningglory; 31 g ai/ha) was 10. The Plant response rating (morningglory; 62 g ai/ha) was 10, the Plant response rating (morningglory; 125 g ai/ha) was 30 and the Plant response rating (ryegrass, Italian; 16 g ai/ha) was 10. It also gave a Plant response rating (ryegrass, Italian; 31 g ai/ha) of 40, a Plant response rating (ryegrass, Italian; 62 g ai/ha) of 50 and a Plant response rating (ryegrass, Italian; 125 g ai/ha) of 70. The Plant response rating (ryegrass, Italian; 250 g ai/ha) was 80, the Plant response rating (sandbur; 16 g ai/ha) was 10 and the Plant response rating (sandbur; 31 g ai/ha) was 40. It also gave a Plant response rating (sandbur; 62 g ai/ha) of 50, a Plant response rating (sandbur; 125 g ai/ha) of 70 and a Plant response rating (sandbur; 250 g ai/ha) of 80. It also gave a Plant response rating (lambsquarters; 31 g ai/ha) of 70, a Plant response rating (lambsquarters; 62 g ai/ha) of 100 and a Plant response rating (lambsquarters; 125 g ai/ha) of 100. It also gave a Plant response rating (lambsquarters; 250 g ai/ha) of 100, a Plant response rating (field bindweed; 16 g ai/ha) of 10 and a Plant response rating (field bindweed; 31 g ai/ha) of 10. The Plant response rating (field bindweed; 62 g ai/ha) was 30, the Plant response rating (field bindweed; 125 g ai/ha) was 50 and the Plant response rating (field bindweed; 250 g ai/ha) was 70. For the same molecule, the Plant response rating (johnsongrass; 31 g ai/ha) was 40, the Plant response rating (johnsongrass; 62 g ai/ha) was 50 and the Plant response rating (johnsongrass; 125 g ai/ha) was 80. For the same molecule, the Plant response rating (johnsongrass; 250 g ai/ha) was 100.

For CCOc1nc(-c2ccc(F)cc2)nn1Cc1ccnc(C(F)(F)F)c1 [Compound 8, 4-[[5-ethoxy-3-(4-fluorophenyl)-1H-1,2,4-triazol-1-yl]methyl]-2-(trifluoromethyl)pyridine], the Plant response rating (corn; 62 g ai/ha) was 25, the Plant response rating (corn; 125 g ai/ha) was 65 and the Plant response rating (arrowleaf sida; 62 g ai/ha) was 65. The Plant response rating (arrowleaf sida; 125 g ai/ha) was 98, the Plant response rating (panicum, fall; 62 g ai/ha) was 100 and the Plant response rating (panicum, fall; 125 g ai/ha) was 100. It also gave a Plant response rating (ragweed; 62 g ai/ha) of 80, a Plant response rating (ragweed; 125 g ai/ha) of 90 and a Plant response rating (nightshade; 62 g ai/ha) of 98. It also gave a Plant response rating (nightshade; 125 g ai/ha) of 100, a Plant response rating (crabgrass, large; 62 g ai/ha) of 100 and a Plant response rating (crabgrass, large; 125 g ai/ha) of 100. It also gave a Plant response rating (soybean; 62 g ai/ha) of 50, a Plant response rating (soybean; 125 g ai/ha) of 50 and a Plant response rating (waterhemp; 62 g ai/ha) of 100. The Plant response rating (waterhemp; 125 g ai/ha) was 100, the Plant response rating (kochia; 62 g ai/ha) was 100 and the Plant response rating (kochia; 125 g ai/ha) was 100. The Plant response rating (morningglory; 62 g ai/ha) was 70, the Plant response rating (morningglory; 125 g ai/ha) was 100 and the Plant response rating (ryegrass, Italian; 62 g ai/ha) was 65. It also gave a Plant response rating (ryegrass, Italian; 125 g ai/ha) of 100, a Plant response rating (sandbur; 62 g ai/ha) of 60 and a Plant response rating (sandbur; 125 g ai/ha) of 98. For the same molecule, the Plant response rating (lambsquarters; 62 g ai/ha) was 100, the Plant response rating (lambsquarters; 125 g ai/ha) was 100 and the Plant response rating (field bindweed; 62 g ai/ha) was 70. It also gave a Plant response rating (field bindweed; 125 g ai/ha) of 95, a Plant response rating (johnsongrass; 62 g ai/ha) of 65 and a Plant response rating (johnsongrass; 125 g ai/ha) of 100.

— patent publication US10681909B2, “Herbicidal triazoles” (FMC Corporation, priority 2014, dated 2020)
